Data: US6368651B1, “Use of additives to modify the taste characteristics of N-neohexyl-α-aspartyl-L-phenylalanine methyl ester” (The NutraSweet Company, priority 1999, dated 2002)
Where a name gives a salt, the structure may show the parent alone. Where a SMILES comes first, the peptide text is derived from it.

Columns and labels:
[1] = Taste evaluation in neotame-sweetened cola-flavored beverage; conditions: for taste characteristic imparted by neotame / taste compared to neotame-sweetened cola-flavored beverage / taste of beverage across tested concentrations: cola; for effectiveness as taste modifying ingredient: test cola-beverage formulation, concentration not given
Method: When a neotame salt was used as a taste modifying/sweetening ingredient, the neotame salt as added in an amount sufficient to provide about 15 ppm to about 25 ppm neotame (e.g., about 0.0028 g of a potassium neotame salt would be used to provide 100 ml of a 25 ppm neotame solution). The taste modifying ingredient was dissolved in the sweetened beverage and the beverage was allowed to stand overnight at room temperature prior to evaluation. Evaluations of the cola-flavored beverages were conducted using a beverage containing water, sodium benzoate (0.16%), phosphoric acid (0.22%), citric acid (0.05%), trisodium citrate (0.08%), caffeine (0.03%), Flavor 28 (1.72%), sweetened with neotame in an amount of about 0.0015% to about 0.0025% (15 ppm to 25 ppm), adjusted to pH 3.2 using sodium citrate.

[2] = Taste evaluation in neotame-sweetened reconstituted powdered soft drink
[3] = Taste evaluation of solid tabletop sweetener in whitened, brewed coffee beverage; conditions: for effectiveness as taste modifying ingredient: tabletop sweetener in a whitened coffee beverage, concentration not given
Method: The following examples 51-78 are directed to solid tabletop sweetener preparations, specifically sachet or packet preparations, comprising mixtures of neotame, one or more taste modifying ingredients and a bulking agent. Taste evaluations were conducted on sweetened coffee or tea beverages prepared by dissolving the solid tabletop sweetener (total weight of 1.00 g) in a cup of brewed coffee or tea. The concentration of the ingredients in the tabletop sweetener is expressed as a percentage by weight, whereas the concentration of the ingredients in the beverage is expressed as parts per million (ppm) or parts per trillion (ppt). The beverages were prepared such that the concentration of neotame in sweetened, whitened coffee beverage was approximately 3-5 ppm and the concentration of neotame in sweetened tea was approximately 5-7 ppm.

[4] = Taste evaluation in neotame-sweetened hot cocoa beverage
[5] = Taste evaluation in neotame-sweetened gelatin dessert; conditions: glycerin 8.4 ppm
[6] = on a weight basis; cited from earlier work
[7] = Taste evaluation in neotame-sweetened strawberry-flavored yogurt; conditions: serine 25 ppm

For `N[C@@H](Cc1ccc(O)cc1)C(=O)O` [L-tyrosine], the “taste characteristic imparted by neotame” value ([1]; L-tyrosine 15 to 50 ppm) was “positively affected”, the “taste characteristic imparted by neotame” value ([2]; tyrosine 35 ppm, reconstituted punch-flavored powdered soft drink) was “positively affected” and the “taste characteristic imparted by neotame” value ([3]; L-tyrosine 0.288% by weight (beverage 12 ppm), neotame 3.75 ppm, Unidex) was “positively affected”.
With `COC1=C(C)OC(C)C1=O` (centres unmarked) [Mesifuran] the “effectiveness as taste modifying ingredient” value (“effectiveness” for short) [1] was “not an effective taste modifying ingredient”.
For `CC1=CC(=O)[N-]S(=O)(=O)O1.[K+]` [acesulfame-K], the “taste characteristic imparted by neotame” value ([1]; acesulfame-K 20 to 40 ppm, neotame 15-25 ppm) was “positively affected”, the “taste characteristic imparted by neotame” value ([2]; acesulfame-K 40 to 100 ppm, reconstituted punch or lemonade-flavored powdered soft drink) was “positively affected” and the “taste characteristic imparted by neotame” value ([4]; acesulfame-K 40 to 100 ppm) was “positively affected”.
For `CC1=CC(=O)NS(=O)(=O)O1.COC(=O)C(Cc1ccccc1)NC(=O)C(CC(=O)O)NCCC(C)(C)C` (centres unmarked) [acesulfame-neotame salt], the “taste compared to neotame-sweetened cola-flavored beverage” value ([1]; acesulfame-neotame salt 40 ppm) was “improved taste”.
With `COC(=O)[C@H](Cc1ccccc1)NC(=O)[C@@H](N)CC(=O)O` [aspartame] (H-Asp-Phe-OMe) the “taste characteristic imparted by neotame” value ([1]; aspartame 20 to 40 ppm) was “positively affected”, the “taste characteristic imparted by neotame” value ([2]; aspartame 100 to 160 ppm, reconstituted punch or lemonade-flavored powdered soft drink) was “positively affected” and the “taste characteristic imparted by neotame” value ([4]; aspartame 100 ppm) was “positively affected”. The “taste characteristic imparted by neotame” value ([3]; aspartame 0.6% to 1.25% by weight (beverage 25 to 52 ppm), neotame 3.75 ppm, Unidex bulking agent) was “positively affected”.
For `Cn1c(=O)c2c(ncn2C)n(C)c1=O` [caffeine], the “taste characteristic imparted by neotame” value ([1]; caffeine 140 to 425 ppm) was “positively affected”.
With `[Ca+2].[Cl-].[Cl-]` [calcium chloride] the “taste characteristic imparted by neotame” value ([3]; calcium chloride 0.072% by weight (beverage 3 ppm), neotame 3.75 ppm, Unidex) was “positively affected”.
In the case of `COC(=O)[C@H](Cc1ccccc1)NC(=O)[C@H](CC(=O)[O-])NCCC(C)(C)C.COC(=O)[C@H](Cc1ccccc1)NC(=O)[C@H](CC(=O)[O-])NCCC(C)(C)C.[Ca+2]` [calcium-neotame salt], the “taste compared to neotame-sweetened cola-flavored beverage” value ([1]; calcium-neotame salt as sweetener) is reported as “improved taste” and the “taste characteristic imparted by neotame, compared to neotame-sweetened coffee beverage” value ([3]; calcium-neotame salt 0.056% by weight (beverage 2.33 ppm), Unidex) is reported as “positively affected”.
In the case of `OC[C@@H](O)[C@@H](O)CO` [erythritol], the “taste characteristic imparted by neotame” value ([1]; erythritol 200 ppm to 10,000 ppm) is reported as “positively affected”.
For `CCc1occc(=O)c1O` [ethyl maltol], the “taste characteristic imparted by neotame” value ([3]; ethyl maltol 0.0482% by weight (beverage 2 ppm), neotame 3.75 ppm, Unidex) was “positively affected”.
For `OCC(O)CO` [glycerol], the “taste characteristic imparted by neotame” value ([1]; glycerol 15 ppm to 2,000 ppm) was “positively affected”, the “taste characteristic imparted by neotame” value [5] was “positively affected” and the “taste characteristic imparted by neotame” value ([2]; glycerin 4 to 35 ppm, reconstituted punch-flavored powdered soft drink) was “positively affected”. For the same compound, the “taste characteristic imparted by neotame” value ([3]; glycerol 0.04% to 0.2% by weight (beverage 1.7 to 8.3 ppm), neotame 3.3 ppm, Unidex) was “positively affected”.
In the case of `Cc1occc(=O)c1O` [maltol], the “taste characteristic imparted by neotame” value ([3]; maltol 0.035% by weight (beverage 1.44 ppm), neotame 3.75 ppm, Unidex) is reported as “positively affected”.
In the case of `OC[C@@H](O)[C@@H](O)[C@H](O)[C@H](O)CO` [mannitol], the “taste characteristic imparted by neotame” value ([1]; mannitol 100 ppm to 2,000 ppm) is reported as “positively affected”.
For `CC1(C)[C@@H](O[C@H]2O[C@H](C(=O)O)[C@@H](O)[C@H](O)[C@H]2O[C@@H]2O[C@H](C(=O)O)[C@@H](O)[C@H](O)[C@H]2O)CC[C@]2(C)[C@H]3C(=O)C=C4[C@@H]5C[C@@](C)(C(=O)O)CC[C@]5(C)CC[C@@]4(C)[C@]3(C)CC[C@@H]12.N` [monoammonium glycyrrhizinate], the “taste characteristic imparted by neotame” value ([1]; monoammonium glycyrrhizinate 0.25 ppm) was “positively affected”.
For `C[C@@H]1O[C@@H](O[C@H]2[C@H](Oc3cc(O)c4c(c3)O[C@H](c3ccc(O)cc3)CC4=O)O[C@H](CO)[C@@H](O)[C@@H]2O)[C@H](O)[C@H](O)[C@H]1O` [naringin], the “effectiveness” value [1] was “ineffective”.
For `COc1ccc(CCC(=O)c2c(O)cc(O[C@@H]3O[C@H](CO)[C@@H](O)[C@H](O)[C@H]3O[C@@H]3O[C@@H](C)[C@H](O)[C@@H](O)[C@H]3O)cc2O)cc1O` [neohesperidin dihydrochalcone], the “taste characteristic imparted by neotame” value ([1]; NHDC 3 ppm) was “positively affected”, the “taste characteristic imparted by neotame” value ([2]; neohesperidin dihydrochalcone 2 to 3 ppm, reconstituted punch or lemonade flavored powdered soft drinks) was “positively affected” and the “taste characteristic imparted by neotame” value ([4]; neohesperidin dihydrochalcone 2 to 3 ppm) was “positively affected”. For the same compound, the “taste characteristic imparted by neotame” value ([3]; neohesperidin dihydrochalcone 0.040% to 0.048% by weight (beverage 1.68 to 2.0 ppm), neotame 3.75 ppm, Unidex) was “positively affected”.
For `COC(=O)[C@H](Cc1ccccc1)NC(=O)[C@H](CC(=O)O)NCCC(C)(C)C` [neotame, N-[N-(3,3-dimethylbutyl)-L-α-aspartyl]-L-phenylalanine 1-methyl ester], the “sweetness relative to sucrose” value [6] is listed as “approximately 8,000 times as sweet as sucrose”.
In the case of `[Cl-].[K+]` [potassium chloride], the “effectiveness” value [1] is reported as “ineffective”.
With `COC(=O)[C@H](Cc1ccccc1)NC(=O)[C@H](CC(=O)[O-])NCCC(C)(C)C.[K+]` [potassium-neotame salt] the “taste compared to neotame-sweetened cola-flavored beverage” value ([1]; potassium-neotame salt as sweetener) was “improved taste” and the “taste characteristic imparted by neotame, compared to neotame-sweetened coffee beverage” value ([3]; potassium-neotame salt 0.11% by weight (beverage 4.58 ppm), Unidex) was “positively affected”.
In the case of `C=C[C@H]1C[N@@]2CC[C@H]1C[C@H]2[C@H](O)c1ccnc2ccc(OC)cc12` [quinine sulfate], the “taste characteristic imparted by neotame” value ([1]; quinine sulfate 0.01 to 1 ppm) is reported as “positively affected”.
For `O=C1NS(=O)(=O)c2ccccc21` [saccharin], the “taste characteristic imparted by neotame” value ([1]; saccharin 20 to 150 ppm) was “positively affected”, the “taste of beverage across tested concentrations” value ([1]; saccharin 100 ppm) was “best tasting beverage” and the “taste characteristic imparted by neotame” value ([2]; saccharin 20 to 40 ppm, reconstituted punch or lemonade-flavored powdered soft drink) was “positively affected”. For the same compound, the “taste characteristic imparted by neotame” value ([4]; saccharin 20 to 40 ppm) was “positively affected” and the “taste characteristic imparted by neotame” value ([3]; saccharin 1.32% by weight (beverage 5.5 ppm), neotame 3.75 ppm, Unidex) was “positively affected”.
In the case of `N[C@@H](CO)C(=O)O` [serine], the “taste characteristic imparted by neotame” value [7] is reported as “positively affected”, the “taste characteristic imparted by neotame” value ([1]; serine 50 ppm) is reported as “positively affected” and the “taste characteristic imparted by neotame” value ([2]; serine 5 ppm to 30 ppm, reconstituted strawberry-flavored powdered soft drink) is reported as “positively affected”.
With `[Cl-].[Na+]` [sodium chloride] the “taste characteristic imparted by neotame” value ([1]; sodium chloride 5 to 50 ppm) was “positively affected” and the “taste of beverage across tested concentrations” value ([1]; sodium chloride 10 ppm) was “best tasting beverage”.
For `COC(=O)[C@H](Cc1ccccc1)NC(=O)[C@H](CC(=O)[O-])NCCC(C)(C)C.[Na+]` [sodium-neotame salt], the “taste characteristic imparted by neotame, compared to neotame-sweetened coffee beverage” value ([3]; sodium-neotame salt 0.09% by weight (beverage 3.75 ppm), Unidex) was “positively affected”.
With `OC[C@@H](O)[C@@H](O)[C@H](O)[C@@H](O)CO` [sorbitol] the “effectiveness” value [1] was “ineffective”.
In the case of `OC[C@H]1O[C@@](CO)(O[C@H]2O[C@H](CO)[C@@H](O)[C@H](O)[C@H]2O)[C@@H](O)[C@@H]1O` [sucrose], the “taste characteristic imparted by neotame” value ([1]; sucrose 2000 ppm to 4000 ppm) is reported as “positively affected”.
With `C[C@@H](O)[C@H](N)C(=O)O` [threonine] the “taste characteristic imparted by neotame” value ([1]; threonine 5 ppm to 30 ppm) was “positively affected”.
With `COc1cc(C=O)ccc1O` [vanillin] the “taste characteristic imparted by neotame” value ([2]; vanillin 0.5 ppm, reconstituted punch and lemonade-flavored soft drinks) was “positively affected”.
In the case of `OC[C@@H](O)[C@H](O)[C@@H](O)CO` [xylitol], the “effectiveness” value [1] is reported as “ineffective”.
With Neotame-monopotassium phosphate the “effectiveness” value [1] was “ineffective”.
In the case of beta cyclodextrin-neotame complex, the “taste characteristic imparted by neotame” value ([3]; beta cyclodextrin-neotame complex 1.409% by weight (beverage 58.7 ppm, neotame 3.3 ppm), Unidex) is reported as “positively affected”.
In the case of neotame-monocalcium phosphate, the “effectiveness” value [1] is reported as “ineffective”.
With neotame-phosphate salt the “taste compared to neotame-sweetened cola-flavored beverage” value ([1]; neotame-phosphate salt as sweetener) was “improved taste”.
In the case of polysorbate 60, the “taste characteristic imparted by neotame” value ([1]; polysorbate 60 10 to 15 ppm) is reported as “positively affected”, the “taste characteristic imparted by neotame” value ([3]; polysorbate 60 0.05% to 0.10% by weight (beverage 2.08 to 4.2 ppm), neotame 3.75 ppm, Unidex) is reported as “positively affected” and the “effectiveness” value [3] is reported as “effective”.
With polysorbate 65 the “taste characteristic imparted by neotame” value ([1]; polysorbate 65 10 to 15 ppm) was “positively affected”.
In the case of polysorbate 80, the “taste characteristic imparted by neotame” value ([1]; polysorbate 80 10 to 15 ppm) is reported as “positively affected” and the “effectiveness” value [3] is reported as “effective”.
For thaumatin, the “taste characteristic imparted by neotame” value ([3]; thaumatin 0.12% by weight (beverage 5.0 ppm), neotame 3.75 ppm, Unidex) was “positively affected”.
